Where two headings read alike, the source gives them in different places. Values belong to the compound of their own block, whether it stands above or below them.
Key:
[1] = target: T1, human indoleamine 2,3-dioxygenase (Homo sapiens, UniProt P14902); assay: Determination of the activity for inhibiting indoleamine 2,3-dioxygenase and IC50; type: biochemical; conditions: purified human IDO, 200 μM L-tryptophan, 37° C., 60 minutes, pH 6.5
T1 construct: made in house; host or cells: E. coli

LLC tumors = assay: In vivo antitumor activity test, LLC tumors in mice; design: Tumor inhibition rate: concentration or dose not given beside the values; conditions: LLC tumors in C57BL6 mice, once per day, 21 days; for Tumor weight: CTX intraperitoneal 150 mg·kg^−1, compounds intragastric; for Tumor inhibition rate: from average tumor weight vs model group
[2] = Effects of compounds on body weight of mice in the LLC tumor test; conditions: LLC tumor-bearing mice
[3] = tested on: DC-stimulated T cell proliferation; assay: DC-stimulated T cell proliferation assay (MLR); type: cell-based, human; conditions: MTT, A570 nm, 72 hours
Method: The human peripheral blood leukocyte layer was taken and diluted with same volume of 0.01 mol/L PBS. PBMC was routinely isolated with a lymphocyte separation medium, and the cell concentration was adjusted to 3×10^6 ml^−1 in a complete RPMI1640 medium; the cells were added to a 6-well plate, 3 ml per well, and cultured in a 5% CO2, 37° C. incubator for 2 hours, washed with PBS for 3 times to remove non-adherent cells, then added with a culture medium containing IL-4 (100 U/ml), GM-CSF (150 ng/ml) and TNF-α (500 U/ml), and then routinely cultured, the medium was changed for half every other day. After 8 days of culture, the cells were used for identification and experiment.
The human PBMC layer was separated by the method in the step 1. The macrophages were removed by the adherence method, the B cells were removed by the nylon wool fiber syringe method, and the obtained T cells were adjusted to a cell concentration of 1×10^6 cells/ml.
The mature DCs with a purity of 99% were centrifuged, added with RPMI1640 to adjust the cell concentration to 1×10^5, 4×10^4, 2×10^4/ml, and added to a 96-well plate, two wells for each concentration, 100 μl/well.
T cells were added to DCs of each of the above drug-added groups, 100 μl/well, cultured in a 5% CO2, 37° C. incubator for 72 hours; for each well, 100 μl of the culture solution was gently sucked out 6 hours before the end of the culture, and 10 μl of MTT (5 mg/ml) was added, further cultured in incubator for 6 hours, then 100 μl of 0.01 mol/L HCl-10% SDS was added, stood at 37° C. overnight, and the absorbance value (A570 nm) was determined by a microplate to show the T cell proliferation level.

[4] = mouse, in vivo
[5] = tested on: mice with Alzheimer (AD model); assay: Morris water maze detection of behavioral changes in mice with Alzheimer; type: in vivo; conditions: for Number of stays / Time of stay: spatial probe test, sixth day
Method: Mouse behavioral analysis was performed using a Morris water maze (Ethovision XT monitoring and analysis software, Morris water maze system, from Noldus, Netherlands). The water maze test process was divided into two parts, hidden platform acquisition test for consecutive 5 days, and spatial probe test on the sixth day, the mice were administered according to the test groups and the design doses before each test. The mice were trained 4 times a day, each time the mice were dived in different areas, the water maze was divided into areas 1, 2, 3 and 4 according to the south, east, north and west, and the platform was the 5th area located in the 4th area. […] The hidden platform acquisition test was used to detect the learning ability of mice, while the spatial probe test was used to detect the spatial memory ability of mice.
Using the statistical analysis software SPSS16.0, the escape latent period of the hidden platform acquisition test was analyzed by variance of multiple measures; and the swimming time in each quadrant and the number of crossing target in the spatial probe test were analyzed by one-way analysis of variance. The data were expressed as mean±standard deviation, and the significant level of difference was set as bilateral P=0.05.

T1 sequence (P14902 whole entry): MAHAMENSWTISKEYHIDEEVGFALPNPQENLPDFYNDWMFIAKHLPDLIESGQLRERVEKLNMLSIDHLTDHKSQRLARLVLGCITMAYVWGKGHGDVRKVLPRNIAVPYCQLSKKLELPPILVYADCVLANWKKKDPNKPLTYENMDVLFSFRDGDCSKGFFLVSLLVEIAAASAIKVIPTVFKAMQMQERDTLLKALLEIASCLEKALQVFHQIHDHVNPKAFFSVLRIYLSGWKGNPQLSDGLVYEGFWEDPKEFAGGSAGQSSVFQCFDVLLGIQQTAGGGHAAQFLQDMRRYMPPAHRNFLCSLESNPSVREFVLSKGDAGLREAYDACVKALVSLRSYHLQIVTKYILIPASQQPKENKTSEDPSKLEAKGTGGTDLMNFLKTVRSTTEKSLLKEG

IC50 [1]: 343 nM
SMILES: CCC(=O)NC(=N)NCCNc1nonc1/C(=N/O)Nc1ccc(F)c(Br)c1 [XSD3-052]

IC50 [1]: 502 nM
SMILES: N/C(=N\C(=O)CC1CCCCC1)NCCNc1nonc1/C(=N/O)Nc1ccc(F)c(Br)c1 [XSD3-072]

IC50 [1]: 345 nM
SMILES: N/C(=N\C(=O)CC1CC1)NCCNc1nonc1/C(=N/O)Nc1ccc(F)c(Br)c1 [XSD3-069]

IC50 [1]: 101 nM
SMILES: N/C(=N\C(=O)CC1CCC1)NCCCNc1nonc1/C(=N/O)Nc1ccc(F)c(Br)c1 [XSD3-082]

IC50 [1]: 539 nM
SMILES: N/C(=N\C(=O)C1CCCCC1)NCCNc1nonc1/C(=N/O)Nc1ccc(F)c(Br)c1 [XSD3-068]

IC50 [1]: 67 nM
SMILES: N/C(=N\S(=O)(=O)CC1CCCCC1)NCCNc1nonc1/C(=N/O)Nc1ccc(F)c(Br)c1 [XSD3-089]

IC50 [1]: 399 nM
SMILES: N/C(=N\C(=O)Cc1ccccc1)NCCNc1nonc1/C(=N/O)Nc1ccc(F)c(Br)c1 [XSD3-092]

IC50 [1]: 76 nM
SMILES: COc1ccc(CC(=O)/N=C(\N)NCCCNc2nonc2/C(=N/O)Nc2ccc(F)c(Br)c2)cc1 [XSD3-093-3]

IC50 [1]: 87 nM
SMILES: N/C(=N\C(=O)C1CCCC1)NCCCNc1nonc1/C(=N/O)Nc1ccc(F)c(Br)c1 [XSD3-080]

IC50 [1]: 16 nM
SMILES: CC(C)(C)OC(=O)N=C(N)NCCCNc1nonc1/C(=N/O)Nc1ccc(F)c(Br)c1 [Example 3053]

IC50 [1]: 89 nM
SMILES: N/C(=N\C(=O)CC1CC1)NCCCNc1nonc1/C(=N/O)Nc1ccc(F)c(Br)c1 [XSD3-081]

SMILES: O=P1(N(CCCl)CCCl)NCCCO1 (stereo not shown) [CTX, cyclophosphamide, reference compound]
Tumor weight (LLC tumors): 0.701 ± 0.314 g | Tumor inhibition rate (LLC tumors): 53.7% | Average body weight after test ([2]; after test (21 days of administration)): 19 ± 3.3 g | Average body weight before test ([2]; before test): 22 ± 3.1 g

IC50 [1]: 95 nM
SMILES: N/C(=N\C(=O)C1CCC1)NCCCNc1nonc1/C(=N/O)Nc1ccc(F)c(Br)c1 [XSD3-079]
T:DC (absorbance value) ([3]; T:DC 10:1): 0.876 ± 0.004 | T:DC (absorbance value) ([3]; T:DC 25:1): 0.850 ± 0.003 | T:DC (absorbance value) ([3]; T:DC 50:1): 0.837 ± 0.004 | Tumor weight (LLC tumors): 0.384 ± 0.092 g | Tumor inhibition rate (LLC tumors): 73.4% | body weight compared with the model group [4]: no significant difference in body weight | Latent period for searching platform in hidden platform test ([5]; 1st Day): 40.5 ± 5.5 s | Latent period for searching platform in hidden platform test ([5]; 2nd Day): 39.3 ± 44 s | Latent period for searching platform in hidden platform test ([5]; 3th Day): 20.3 ± 4.2 s | Number of stays ([5]; 4th Area): 14.4 ± 1.3 times | Time of stay ([5]; 4th Area): 26.7 ± 3.3 s | Latent period for searching platform in hidden platform test ([5]; 4th Day): 17.7 ± 5.2 s | Number of stays ([5]; 5th Area (platform)): 3.9 ± 0.5 times | Time of stay ([5]; 5th Area (platform)): 5.8 ± 0.7 s | Latent period for searching platform in hidden platform test ([5]; 5th Day): 9.9 ± 5.2 s

IC50 [1]: 37 nM
SMILES: N=C(N)NCCNc1nonc1/C(=N/O)Nc1ccc(F)c(Br)c1 [Example 3047]
T:DC (absorbance value) ([3]; T:DC 10:1): 0.864 ± 0.006^##※ | T:DC (absorbance value) ([3]; T:DC 25:1): 0.834 ± 0.004^##※ | T:DC (absorbance value) ([3]; T:DC 50:1): 0.825 ± 0.007^##※ | Tumor weight (LLC tumors): 0.370 ± 0.209^##※ g | Tumor inhibition rate (LLC tumors): 75.6% | Average body weight before test [4]: 22 ± 3.4 g | Latent period for searching platform in hidden platform test ([5]; 1st Day): 52.3 ± 5.2 s | Latent period for searching platform in hidden platform test ([5]; 2nd Day): 44.0 ± 4.4 s | Latent period for searching platform in hidden platform test ([5]; 3th Day): 22.1 ± 4.5^##※ s | Number of stays ([5]; 4th Area): 13.0 ± 1.5^##※ times | Time of stay ([5]; 4th Area): 25.9 ± 5.2^##※ s | Latent period for searching platform in hidden platform test ([5]; 4th Day): 10.5 ± 5.7^##※ s | Number of stays ([5]; 5th Area (platform)): 3.8 ± 0.6^##※ times | Time of stay ([5]; 5th Area (platform)): 5.9 ± 0.7^##※ s | Latent period for searching platform in hidden platform test ([5]; 5th Day): 5.4 ± 6.0^##※※ s

SMILES: NS(=O)(=O)NCCNc1nonc1C(=Nc1ccc(F)c(Br)c1)NO [INCB024360, reference compound]
T:DC (absorbance value) ([3]; T:DC 10:1): 0.830 ± 0.002 | T:DC (absorbance value) ([3]; T:DC 25:1): 0.804 ± 0.004 | T:DC (absorbance value) ([3]; T:DC 50:1): 0.799 ± 0.003 | Tumor weight (LLC tumors): 0.653 ± 0.178 g | Tumor inhibition rate (LLC tumors): 56.9% | Latent period for searching platform in hidden platform test ([5]; 1st Day): 53.2 ± 2.3 s | Latent period for searching platform in hidden platform test ([5]; 2nd Day): 51.4 ± 4.8 s | Latent period for searching platform in hidden platform test ([5]; 3th Day): 38.6 ± 5.5 s | Number of stays ([5]; 4th Area): 8.4 ± 1.0 times | Time of stay ([5]; 4th Area): 16.2 ± 2.4 s | Latent period for searching platform in hidden platform test ([5]; 4th Day): 28.7 ± 3.9 s | Number of stays ([5]; 5th Area (platform)): 2.1 ± 0.4 times | Time of stay ([5]; 5th Area (platform)): 3.9 ± 0.7 s | Latent period for searching platform in hidden platform test ([5]; 5th Day): 19.9 ± 6.7 s

IC50 [1]: 23 nM
SMILES: CC(C)(C)OC(=O)N=C(NCCNc1nonc1/C(=N/O)Nc1ccc(F)c(Br)c1)NC(=O)OC(C)(C)C [Example 3051]

IC50 [1]: 63 nM
SMILES: N/C(=N\S(=O)(=O)c1ccccc1)NCCCNc1nonc1/C(=N/O)Nc1ccc(F)c(Br)c1 [XSD3-074]

IC50 [1]: 20 nM
SMILES: N=C(N)NCCCNc1nonc1/C(=N/O)Nc1ccc(F)c(Br)c1 [Example 3048]

IC50 [1]: 22 nM
SMILES: CNC(=N)NCCNc1nonc1/C(=N/O)Nc1ccc(F)c(Br)c1 [Example 3049]

IC50 [1]: 57 nM
SMILES: N=C(NCCNc1nonc1/C(=N/O)Nc1ccc(F)c(Br)c1)NS(=O)(=O)c1ccccc1 [XSD3-058]
T:DC (absorbance value) ([3]; T:DC 10:1): 0.880 ± 0.003 | T:DC (absorbance value) ([3]; T:DC 25:1): 0.849 ± 0.002 | T:DC (absorbance value) ([3]; T:DC 50:1): 0.831 ± 0.002 | Tumor weight (LLC tumors): 0.400 ± 0.112 g | Tumor inhibition rate (LLC tumors): 72.3% | body weight compared with the model group [4]: no significant difference in body weight | Latent period for searching platform in hidden platform test ([5]; 1st Day): 45.3 ± 3.7 s | Latent period for searching platform in hidden platform test ([5]; 2nd Day): 41.3 ± 3.2 s | Latent period for searching platform in hidden platform test ([5]; 3th Day): 25.4 ± 4.6 s | Number of stays ([5]; 4th Area): 13.3 ± 1.8 times | Time of stay ([5]; 4th Area): 25.2 ± 4.2 s | Latent period for searching platform in hidden platform test ([5]; 4th Day): 15.5 ± 4.9 s | Number of stays ([5]; 5th Area (platform)): 3.5 ± 0.9 times | Time of stay ([5]; 5th Area (platform)): 5.9 ± 0.6 s | Latent period for searching platform in hidden platform test ([5]; 5th Day): 7.3 ± 6.1 s

IC50 [1]: 118 nM
SMILES: N/C(=N\C(=O)C1CC1)NCCNc1nonc1/C(=N/O)Nc1ccc(F)c(Br)c1 [XSD3-065]

IC50 [1]: 142 nM
SMILES: N/C(=N\C(=O)C1CCCC1)NCCNc1nonc1/C(=N/O)Nc1ccc(F)c(Br)c1 [XSD3-067]

IC50 [1]: 132 nM
SMILES: N/C(=N\C(=O)C1CCC1)NCCNc1nonc1/C(=N/O)Nc1ccc(F)c(Br)c1 [XSD3-066]

IC50 [1]: 160 nM
SMILES: N/C(=N\C(=O)CC1CCCCC1)NCCCNc1nonc1/C(=N/O)Nc1ccc(F)c(Br)c1 [XSD3-084]

IC50 [1]: 61 nM
SMILES: N/C(=N\C(=O)Cc1ccc(F)cc1)NCCCNc1nonc1/C(=N/O)Nc1ccc(F)c(Br)c1 [XSD3-093-2]

IC50 [1]: 56 nM
SMILES: N/C(=N\C(=O)Cc1ccc(Cl)cc1)NCCCNc1nonc1/C(=N/O)Nc1ccc(F)c(Br)c1 [XSD3-093-1]

IC50 [1]: 145 nM
SMILES: N/C(=N\C(=O)C1CCCCC1)NCCCNc1nonc1/C(=N/O)Nc1ccc(F)c(Br)c1 [XSD3-078]

IC50 [1]: 345 nM
SMILES: N/C(=N/C(=O)CC1CCC1)NCCNc1nonc1/C(=N/O)Nc1ccc(F)c(Br)c1 [XSD3-070]

IC50 [1]: 72 nM
SMILES: N/C(=N\S(=O)(=O)CC1CCCCC1)NCCCNc1nonc1/C(=N/O)Nc1ccc(F)c(Br)c1 [XSD3-088]

IC50 [1]: 44 nM
SMILES: N/C(=N\C(=O)Cc1ccccc1)NCCCNc1nonc1/C(=N/O)Nc1ccc(F)c(Br)c1 [XSD3-093]

Reference: US20200325109A1, “IMINO-UREA DERIVATIVES” (Lunan Pharmaceutical Group Corporation, priority 2017, published 2020)
